From ChEMBL document CHEMBL5465560, “Selectivity Literature for EUbOPEN Chemogenomic Library” (2024) come the findings set out here.

Each structure is given as a SMILES string.

The target in experiment [1] is 5'-AMP-activated protein kinase catalytic subunit alpha-1 (Homo sapiens, UniProt Q13131). Kind of experiment: Selectivity interaction (KinomeScan (DiscoverX)) EUB0000595a PRKAA1. The settings on record: at 10 µM.
Experiment [2] deals with Epidermal growth factor receptor (Homo sapiens), P00533 [L858R]. To be noted: at 10 µM.
Experiment [3] addresses T1, Mitogen-activated protein kinase kinase kinase 5 (Homo sapiens) (UniProt Q99683).
T1 sequence (whole entry): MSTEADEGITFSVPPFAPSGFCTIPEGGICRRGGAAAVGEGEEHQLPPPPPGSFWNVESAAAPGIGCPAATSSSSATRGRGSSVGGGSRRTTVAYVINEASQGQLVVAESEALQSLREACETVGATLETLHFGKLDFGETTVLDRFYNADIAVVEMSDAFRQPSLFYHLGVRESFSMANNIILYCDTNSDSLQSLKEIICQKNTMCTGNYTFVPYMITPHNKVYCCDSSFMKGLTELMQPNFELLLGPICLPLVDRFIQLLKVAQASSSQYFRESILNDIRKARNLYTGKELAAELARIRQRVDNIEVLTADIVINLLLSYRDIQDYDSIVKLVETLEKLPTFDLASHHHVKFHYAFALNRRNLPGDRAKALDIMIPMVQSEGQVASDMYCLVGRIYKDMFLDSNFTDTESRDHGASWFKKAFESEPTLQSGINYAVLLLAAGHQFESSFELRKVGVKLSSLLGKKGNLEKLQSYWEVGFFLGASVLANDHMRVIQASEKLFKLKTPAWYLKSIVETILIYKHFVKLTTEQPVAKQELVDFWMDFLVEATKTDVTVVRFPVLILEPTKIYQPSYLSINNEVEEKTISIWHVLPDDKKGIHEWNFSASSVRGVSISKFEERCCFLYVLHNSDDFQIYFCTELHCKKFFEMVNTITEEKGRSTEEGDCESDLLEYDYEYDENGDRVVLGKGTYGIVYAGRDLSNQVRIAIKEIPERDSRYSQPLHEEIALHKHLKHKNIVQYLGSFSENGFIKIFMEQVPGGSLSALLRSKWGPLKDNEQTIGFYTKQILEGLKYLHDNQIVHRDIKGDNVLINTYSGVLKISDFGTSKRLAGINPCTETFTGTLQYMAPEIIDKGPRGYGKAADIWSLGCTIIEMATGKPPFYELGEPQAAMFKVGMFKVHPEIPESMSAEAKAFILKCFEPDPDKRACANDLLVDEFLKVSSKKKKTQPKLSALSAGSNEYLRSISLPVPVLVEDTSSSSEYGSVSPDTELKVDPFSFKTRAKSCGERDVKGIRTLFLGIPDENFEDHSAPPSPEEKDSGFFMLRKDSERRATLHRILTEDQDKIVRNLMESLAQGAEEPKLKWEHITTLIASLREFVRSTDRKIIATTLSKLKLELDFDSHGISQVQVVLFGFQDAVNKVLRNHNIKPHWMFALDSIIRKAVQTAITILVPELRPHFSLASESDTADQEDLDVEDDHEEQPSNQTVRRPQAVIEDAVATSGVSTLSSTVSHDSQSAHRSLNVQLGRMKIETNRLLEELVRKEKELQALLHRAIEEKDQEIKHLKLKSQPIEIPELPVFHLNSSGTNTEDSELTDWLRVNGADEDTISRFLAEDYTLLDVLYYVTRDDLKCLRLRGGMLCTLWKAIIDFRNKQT
Kind of experiment: Selectivity interaction (ActivX KiNativ screen (kinase selectivity in THP-1 cell lysates)) EUB0000639a MAP3K5. The format is subcellular. The settings on record: lysate, at 5 µM.

For experiment [4], the target named is T2, Myosin-IIIb (Homo sapiens) (UniProt Q8WXR4).
T2 sequence (whole entry): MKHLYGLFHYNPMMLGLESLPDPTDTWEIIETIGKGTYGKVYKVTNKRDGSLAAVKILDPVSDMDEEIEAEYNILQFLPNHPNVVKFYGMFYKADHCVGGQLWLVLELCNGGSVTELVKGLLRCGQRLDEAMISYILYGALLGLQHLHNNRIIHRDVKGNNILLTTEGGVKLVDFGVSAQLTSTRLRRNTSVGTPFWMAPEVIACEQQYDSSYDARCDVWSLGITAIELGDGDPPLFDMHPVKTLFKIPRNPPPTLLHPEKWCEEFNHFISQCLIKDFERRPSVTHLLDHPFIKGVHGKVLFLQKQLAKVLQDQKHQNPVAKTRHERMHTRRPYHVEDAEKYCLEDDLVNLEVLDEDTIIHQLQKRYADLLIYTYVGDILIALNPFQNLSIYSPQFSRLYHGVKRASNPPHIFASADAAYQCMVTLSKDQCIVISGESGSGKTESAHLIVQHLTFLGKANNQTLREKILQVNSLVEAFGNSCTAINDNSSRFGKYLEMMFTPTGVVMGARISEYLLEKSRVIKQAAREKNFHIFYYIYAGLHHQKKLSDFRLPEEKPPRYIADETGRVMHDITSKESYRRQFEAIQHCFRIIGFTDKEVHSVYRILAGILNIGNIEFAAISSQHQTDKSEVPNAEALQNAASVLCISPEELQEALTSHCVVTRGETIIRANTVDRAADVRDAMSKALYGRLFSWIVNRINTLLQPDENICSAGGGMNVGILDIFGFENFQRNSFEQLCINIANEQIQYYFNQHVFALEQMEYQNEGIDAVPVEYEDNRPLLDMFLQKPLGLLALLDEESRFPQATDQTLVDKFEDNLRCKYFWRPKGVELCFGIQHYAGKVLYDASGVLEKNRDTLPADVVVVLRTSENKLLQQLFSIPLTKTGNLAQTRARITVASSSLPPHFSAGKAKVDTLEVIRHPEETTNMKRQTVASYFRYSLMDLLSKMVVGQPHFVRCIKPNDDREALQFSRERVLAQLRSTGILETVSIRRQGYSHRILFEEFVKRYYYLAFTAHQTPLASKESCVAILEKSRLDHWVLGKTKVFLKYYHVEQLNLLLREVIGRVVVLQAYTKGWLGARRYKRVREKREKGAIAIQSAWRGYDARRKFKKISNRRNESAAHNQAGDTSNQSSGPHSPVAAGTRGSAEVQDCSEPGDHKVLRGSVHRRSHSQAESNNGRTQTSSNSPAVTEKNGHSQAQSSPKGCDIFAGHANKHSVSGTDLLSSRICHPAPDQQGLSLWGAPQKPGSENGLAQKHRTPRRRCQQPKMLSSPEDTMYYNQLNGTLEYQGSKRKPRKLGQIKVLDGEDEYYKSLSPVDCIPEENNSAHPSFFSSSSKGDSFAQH
Kind of experiment: Selectivity interaction (KinomeScan (DiscoverX)) EUB0001079a MYO3B. To be noted: at 1 µM.

Experiment [5] addresses Serine/threonine-protein kinase PLK1 (Homo sapiens, UniProt P53350). Briefly: Selectivity interaction (KinomeScan (DiscoverX)) EUB0001079a PLK1. To be noted: at 1 µM.
Experiment [6] addresses Cyclin-dependent kinase 2/cyclin E (Homo sapiens) (UniProt P24864+P24941+O96020). Kind of experiment: Selectivity interaction (Millipore kinase profiler) EUB0000124b CDK2. The format is protein-complex assay. The settings on record: at 10 µM.
Experiment [7] concerns the target Tyrosine-protein kinase CSK (Homo sapiens) (UniProt P41240). Kind of experiment: Selectivity interaction (KinomeScan (DiscoverX)) EUB0000229b CSK. The settings on record: at 10 µM.

Tyrosine-protein kinase CSK (Homo sapiens), sequence (P41240 2-450 limits assumed): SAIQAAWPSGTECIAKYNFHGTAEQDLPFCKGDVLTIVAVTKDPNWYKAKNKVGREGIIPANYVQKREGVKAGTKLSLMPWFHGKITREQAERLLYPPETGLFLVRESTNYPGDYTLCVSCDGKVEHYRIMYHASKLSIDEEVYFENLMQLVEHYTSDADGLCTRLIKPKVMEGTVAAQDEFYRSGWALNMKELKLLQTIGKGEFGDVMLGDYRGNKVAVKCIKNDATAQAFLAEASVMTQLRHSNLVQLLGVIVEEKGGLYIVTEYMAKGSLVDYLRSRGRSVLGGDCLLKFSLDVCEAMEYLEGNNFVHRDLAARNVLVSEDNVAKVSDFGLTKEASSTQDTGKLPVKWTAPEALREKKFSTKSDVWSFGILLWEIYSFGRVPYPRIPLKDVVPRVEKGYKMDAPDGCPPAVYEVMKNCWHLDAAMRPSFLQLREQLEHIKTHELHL
Epidermal growth factor receptor (Homo sapiens), P00533 [L858R], sequence (P00533 whole entry L858R): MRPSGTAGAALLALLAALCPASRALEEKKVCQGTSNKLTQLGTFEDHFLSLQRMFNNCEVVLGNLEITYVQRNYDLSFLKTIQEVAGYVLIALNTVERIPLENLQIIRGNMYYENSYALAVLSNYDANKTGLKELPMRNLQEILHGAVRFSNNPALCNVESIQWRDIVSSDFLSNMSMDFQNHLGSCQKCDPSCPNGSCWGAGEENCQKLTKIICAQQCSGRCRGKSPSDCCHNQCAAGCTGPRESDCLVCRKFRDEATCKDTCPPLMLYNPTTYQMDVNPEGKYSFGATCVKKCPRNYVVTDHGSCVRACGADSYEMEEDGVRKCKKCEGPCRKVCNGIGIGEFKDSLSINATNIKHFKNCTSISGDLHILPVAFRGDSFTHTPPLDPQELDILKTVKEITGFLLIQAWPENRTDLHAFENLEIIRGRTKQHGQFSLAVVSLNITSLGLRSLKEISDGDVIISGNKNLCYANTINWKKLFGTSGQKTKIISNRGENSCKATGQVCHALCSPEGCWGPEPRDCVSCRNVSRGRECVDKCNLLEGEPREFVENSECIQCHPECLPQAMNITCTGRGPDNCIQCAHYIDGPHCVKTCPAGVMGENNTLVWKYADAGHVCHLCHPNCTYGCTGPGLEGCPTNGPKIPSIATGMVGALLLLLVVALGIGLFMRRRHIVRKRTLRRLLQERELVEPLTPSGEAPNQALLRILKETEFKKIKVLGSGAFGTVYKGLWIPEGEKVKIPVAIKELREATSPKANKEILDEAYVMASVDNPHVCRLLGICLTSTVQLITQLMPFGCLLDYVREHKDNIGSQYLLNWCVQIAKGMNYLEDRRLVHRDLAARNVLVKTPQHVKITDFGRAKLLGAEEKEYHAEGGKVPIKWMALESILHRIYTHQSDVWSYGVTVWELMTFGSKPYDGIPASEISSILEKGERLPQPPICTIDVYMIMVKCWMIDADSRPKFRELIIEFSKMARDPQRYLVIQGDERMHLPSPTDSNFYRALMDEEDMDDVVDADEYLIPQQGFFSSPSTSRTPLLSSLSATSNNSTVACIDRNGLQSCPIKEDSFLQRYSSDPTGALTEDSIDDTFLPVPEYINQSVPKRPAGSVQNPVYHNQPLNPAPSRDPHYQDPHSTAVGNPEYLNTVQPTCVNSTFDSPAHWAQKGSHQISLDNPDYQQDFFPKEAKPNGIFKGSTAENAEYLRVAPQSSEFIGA
Serine/threonine-protein kinase PLK1, sequence (P53350 whole entry): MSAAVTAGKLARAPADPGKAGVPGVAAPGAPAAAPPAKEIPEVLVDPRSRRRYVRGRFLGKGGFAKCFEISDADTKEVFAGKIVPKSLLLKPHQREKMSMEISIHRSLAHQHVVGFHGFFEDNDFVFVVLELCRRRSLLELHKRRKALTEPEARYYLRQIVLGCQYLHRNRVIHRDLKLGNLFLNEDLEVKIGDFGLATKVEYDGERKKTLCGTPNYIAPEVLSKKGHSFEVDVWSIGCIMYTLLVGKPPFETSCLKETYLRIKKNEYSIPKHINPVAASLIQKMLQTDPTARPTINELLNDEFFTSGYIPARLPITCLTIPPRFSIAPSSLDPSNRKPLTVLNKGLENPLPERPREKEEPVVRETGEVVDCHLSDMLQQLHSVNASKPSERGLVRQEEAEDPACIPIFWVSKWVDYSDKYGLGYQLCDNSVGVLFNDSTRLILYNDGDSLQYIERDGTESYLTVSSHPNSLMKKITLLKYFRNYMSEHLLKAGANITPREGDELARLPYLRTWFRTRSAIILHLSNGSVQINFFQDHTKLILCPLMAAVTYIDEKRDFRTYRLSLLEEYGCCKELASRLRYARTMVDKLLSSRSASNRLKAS
5'-AMP-activated protein kinase catalytic subunit alpha-1, sequence (Q13131 whole entry, looked up): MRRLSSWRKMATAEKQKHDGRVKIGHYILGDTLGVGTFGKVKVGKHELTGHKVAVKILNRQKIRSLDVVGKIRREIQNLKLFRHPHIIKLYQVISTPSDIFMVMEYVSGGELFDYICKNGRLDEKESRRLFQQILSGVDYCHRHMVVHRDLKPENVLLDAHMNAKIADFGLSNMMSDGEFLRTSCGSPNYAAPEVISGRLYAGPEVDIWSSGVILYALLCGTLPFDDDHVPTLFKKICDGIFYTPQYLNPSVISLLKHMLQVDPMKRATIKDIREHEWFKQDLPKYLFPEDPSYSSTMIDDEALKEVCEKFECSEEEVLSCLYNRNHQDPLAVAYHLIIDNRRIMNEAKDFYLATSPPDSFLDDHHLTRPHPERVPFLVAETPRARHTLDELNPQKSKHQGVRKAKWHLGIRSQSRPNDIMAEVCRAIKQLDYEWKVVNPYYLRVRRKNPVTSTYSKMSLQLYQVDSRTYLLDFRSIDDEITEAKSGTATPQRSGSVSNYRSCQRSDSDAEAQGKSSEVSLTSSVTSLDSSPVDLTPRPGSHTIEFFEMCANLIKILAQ

Consider `COCC(=O)NC/C=C/c1ccc2ncnc(Nc3ccc(Oc4ccc(C)nc4)c(C)c3)c2c1` [CP-724714], for which, in experiment [1], the % of control worked out at 89%. `Cc1cc([C@@H](C)Nc2ccccc2C(=O)O)c2nc(N3CCOCC3)cc(=O)n2c1` [AZD-6482] registered a % of control in experiment [2] of 100%. On to `CC[C@@H]1[C@H](F)C(=O)N[C@@H]1COc1nccc2cc(C(N)=O)c(OC)cc12` [ZIMLOVISERTIB], for which, in experiment [3], the % of inhibition was -16.2%.

Regarding `Nc1cnc(N2CCc3cc(S(=O)(=O)Nc4c(F)cc(Cl)cc4F)cc(N4CCCC4=O)c32)nc1` [TP-020n], the % of control in experiment [4] and in experiment [5] was 100% in each case. `CC(=O)Nc1cccc(-n2c(=O)n(C3CC3)c(=O)c3c(Nc4ccc(I)cc4F)n(C)c(=O)c(C)c32)c1` gave a % of control in experiment [6] of 104%. Compound `COc1cc(N(C)c2ccnc3ccc(C(F)(F)F)cc23)cc(OC)c1OC` came in with a % binding in experiment [7] of 91%.
